# Biological target: T1, Calpain I from human erythrocytes (Homo sapiens, UniProt P07384)
# T1 construct: Calpain I was purified from human erythrocytes; from tissue; host or cells: human erythrocytes
# T1 sequence (P07384 1-714): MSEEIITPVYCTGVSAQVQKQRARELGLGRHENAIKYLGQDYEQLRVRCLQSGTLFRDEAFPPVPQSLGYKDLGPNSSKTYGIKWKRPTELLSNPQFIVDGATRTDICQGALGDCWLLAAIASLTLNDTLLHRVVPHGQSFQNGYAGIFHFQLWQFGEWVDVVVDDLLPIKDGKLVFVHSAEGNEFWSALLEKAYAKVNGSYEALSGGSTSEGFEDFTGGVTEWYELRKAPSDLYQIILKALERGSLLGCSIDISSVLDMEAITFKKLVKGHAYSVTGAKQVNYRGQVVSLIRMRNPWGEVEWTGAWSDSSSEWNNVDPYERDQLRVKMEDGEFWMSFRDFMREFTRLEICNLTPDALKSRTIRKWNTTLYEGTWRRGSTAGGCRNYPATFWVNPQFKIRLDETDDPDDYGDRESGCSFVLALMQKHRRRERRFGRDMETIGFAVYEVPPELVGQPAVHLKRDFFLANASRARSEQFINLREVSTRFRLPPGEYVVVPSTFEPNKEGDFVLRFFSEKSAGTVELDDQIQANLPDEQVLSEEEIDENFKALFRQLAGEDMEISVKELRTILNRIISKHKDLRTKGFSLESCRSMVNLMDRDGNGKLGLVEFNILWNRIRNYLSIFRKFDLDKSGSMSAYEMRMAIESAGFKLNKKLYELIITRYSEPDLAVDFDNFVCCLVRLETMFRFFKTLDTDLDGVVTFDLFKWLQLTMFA
# T1 sequence (P04632 1-268 partner): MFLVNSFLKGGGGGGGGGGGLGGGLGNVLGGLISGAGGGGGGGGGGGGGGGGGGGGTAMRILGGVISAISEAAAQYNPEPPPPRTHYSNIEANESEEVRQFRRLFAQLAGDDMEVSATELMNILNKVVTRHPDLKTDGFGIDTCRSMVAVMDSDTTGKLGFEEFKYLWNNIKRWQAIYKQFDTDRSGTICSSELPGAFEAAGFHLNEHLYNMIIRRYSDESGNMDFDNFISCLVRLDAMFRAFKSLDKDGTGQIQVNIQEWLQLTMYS
# Test: Calpain I inhibition, Suc-Leu-Tyr-AMC hydrolysis (KI)
# Assay type: biochemical
# Settings: Table 1, Z-Leu--AA--CONHR; read-out: KI Cal I
# Procedure: HEPES, heparin, and A23187 were obtained from Calbiochem. Suc-Leu-Tyr-AMC and chromogenic substrates were obtained from Sigma. Calpain I was purified from human erythrocytes according to the method of Kitahara (Kitahara et al., J. Biochem. 95, 1759-1766) omitting the Blue-Sepharose step. Calpain II from rabbit muscle and cathepsin B were purchased from Sigma. Papain was purchased from Calbiochem.
# Peptide α-ketoamides were assayed as reversible enzyme inhibitors. Various concentrations of inhibitors in Me2 SO were added to the assay mixture which contained buffer and substrate. The reaction was started by the addition of the enzyme and the hydrolysis rates were followed spectrophotometrically or fluorimetrically.
# Calpain I from human erythrocytes and calpain II from rabbit were assayed using Suc-Leu-Tyr-AMC Sasaki et al., J. Biol. Chem. 259, 12489-12494 (1984); incorporated herein by reference!, and the AMC (7-amino-4-methylcoumarin) release was followed fluorimetrically (excitation at 380 nm, and emmision at 460 nm). Calpains were assayed in 25 mM Tris pH=8.0, 10 mM CaC12. Fluorescence was followed using a Gilson FL-1A fluorometer or a Perkin-Elmer 203 Fluorescence spectrometer. Cathepsin B was assayed in 20 mM sodium acetate pH=5.2, 0.5 mM dithiothreitol using Bz-Phe-Val-Arg-p-nitroanilide as substrate. Alternately, cathepsin B was assayed with Z-Arg-Arg-AFC Barrett and Kirschke, Methods Enzymol. 80, 535-561 (1981); incorporated herein by reference!, and the AFC (7-amino-4-trifluoromethylcoumarin) release was followed fluorimetrically (excitation at 400 nm and emmision at 505 nm). Papain was assayed in 100 mM KPO4, 1 mM EDTA, 2.5 mM cysteine pH=6.0 using Bz-Arg-AMC or Bz-Arg-NA Kanaoka et al., Chem. Pharm. Bull. 25, 3126-3128 (1977); incorporated herein by reference! as a substrate. The AMC (7-amino-4-methylcoumarin) release was followed fluorimetrically (excitation at 380 nm, and emmision at 460 nm). Enzymatic hydrolysis rates were measured at various substrate and inhibitor concentrations, and KI values were determined by either Lineweaver-Burk plots or Dixon plots.
# A 0.1M Hepes, 0.5M NaCl, pH 7.5 buffer was utilized for human leukocyte elastase (HLE), porcine pancreatic elastase (PPE), chymotrypsin and cathepsin G. A 0.1 Hepes, 0.01 M CaCl2, pH 7.5 buffer was utilized for trypsin, plasmin, and coagulation enzymes. A 50 mM Tris.HCl, 2 mM EDTA, 5 mM cysteine, pH 7.5 was used as a buffer for papain. A 88 mM KH2 PO4, 12 mM Na2 HPO4, 1.33 mM EDTA, 2.7 mM cysteine, pH 6.0 solution was used as a buffer for cathepsin B. A 20 mM Hepes, 10 mM CaCl2, 10 mM mercatoethanol, pH 7.2 buffer was utilized for calpain I and calpain II.
row,Compound,Ki [nM]
1,CCC(NC(=O)C(CC(C)C)NC(=O)OCc1ccccc1)C(=O)C(=O)NCCCN1CCCc2ccccc21 (stereo not drawn) [Z-Leu-Abu-CONH--(CH2)3 -1-Tetrahydroquinolinyl],370
2,"CCC(NC(=O)C(CC(C)C)NC(=O)OCc1ccccc1)C(=O)C(=O)NCc1nc(C)cs1 (stereo not drawn) [Z-Leu-Abu-CONH-CH2 -2-(4-methylthiazole), Z-Leu-Abu-CONH--CH2 -2-(4-Methyl-2-thiazolyl)]",34000
3,"CCC(NC(=O)[C@H](CC(C)C)NC(=O)OCc1ccccc1)C(=O)C(=O)NCc1ccc2ccccc2n1 (stereo partly drawn) [Z-Leu-Abu-CONH-CH2 -2-quinolinyl, Z-Leu-Abu-CONH--CH2 -2-Quinolinyl]",130
4,"CCC(NC(=O)C(CC(C)C)NC(=O)OCc1ccccc1)C(=O)C(=O)NCc1ccc[n+]([O-])c1 (stereo not drawn) [Z-Leu-Abu-CONH-CH2 -3-pyridyl-N-oxide, Z-Leu-Abu-CONH--CH2 -3-Pyridyl-N-oxide]",9500
5,"CCC(NC(=O)C(CC(C)C)NC(=O)OCc1ccccc1)C(=O)C(=O)NCc1cc(=O)[nH]c(=O)[nH]1 (stereo not drawn) [Z-Leu-Abu-CONH-CH2 -6-uracil, Z-Leu-Abu-CONH--CH2 -6-Uracil]",9000
6,"CC(C)CC(NC(=O)OCc1ccccc1)C(=O)NC(Cc1ccccc1)C(=O)C(=O)NCCNC(=O)CCCCC1SCC2NC(=O)NC21 (stereo not drawn) [Z-Leu-Phe-CONH-(CH2)2 NH-biotinyl, Z-Leu-Phe-CONH--(CH2)2 NH-Biotinyl]",220
7,CC(C)CC(NC(=O)OCc1ccccc1)C(=O)NC(Cc1ccccc1)C(=O)C(=O)NCCCN1CCCc2ccccc21 (stereo not drawn) [Z-Leu-Phe-CONH--(CH2)3-1-Tetrahydroquinolinyl],380
8,CC(C)CC(NC(=O)OCc1ccccc1)C(=O)NC(Cc1ccccc1)C(=O)C(=O)NCCCN1CCc2ccccc2C1 (stereo not drawn) [Z-Leu-Phe-CONH--(CH2)3-2-Tetrahydroisoquinolinyl],220

# Same assay, conditions: Table 2, Z-Leu--AA--CONH--CH2 CH(OH)-R; read-out: KI Cal I
row,Compound,Ki [nM]
1,"CCC(NC(=O)C(CC(C)C)NC(=O)OCc1ccccc1)C(=O)C(=O)NCC(O)c1cccc(Oc2ccc(Cl)c(Cl)c2)c1 (stereo not drawn) [Z-Leu-Abu-CONH--CH2 CH(OH)C6 H4 -3-OC6 H3 (3,4-Cl2)]",270
2,"CCC(NC(=O)C(CC(C)C)NC(=O)OCc1ccccc1)C(=O)C(=O)NCC(O)c1cccc2ccccc12 (stereo not drawn) [Z-Leu-Abu-CONH-CH2 CH(OH)-1-C10 H7, Z-Leu-Abu-CONH--CH2 CH(OH)-1-C10 H7]",120
3,"CCC(NC(=O)C(CC(C)C)NC(=O)OCc1ccccc1)C(=O)C(=O)NCC(O)c1ccc2ccccc2c1 (stereo not drawn) [Z-Leu-Abu-CONH-CH2 CH(OH)-2-C10 H7, Z-Leu-Abu-CONH--CH2 CH(OH)-2-C10 H7]",350
4,"CC(C)CC(NC(=O)OCc1ccccc1)C(=O)NC(Cc1ccccc1)C(=O)C(=O)NCC(O)c1cccc(Oc2ccc(Cl)c(Cl)c2)c1 (stereo not drawn) [Z-Leu-Phe-CONH--CH2 CH(OH)C6 H4 -3-OC6 H3 (3,4-Cl2)]",590
5,"CC(C)CC(NC(=O)OCc1ccccc1)C(=O)NC(Cc1ccccc1)C(=O)C(=O)NCC(O)c1c(F)c(F)c(F)c(F)c1F (stereo not drawn) [Z-Leu-Phe-CONH-CH2 CH(OH)-C6 F5, Z-Leu-Phe-CONH--CH2 CH(OH)C6 F5]",700
6,"CC(C)CC(NC(=O)OCc1ccccc1)C(=O)NC(Cc1ccccc1)C(=O)C(=O)NCC(O)c1cccc(Oc2ccccc2)c1 (stereo not drawn) [Z-Leu-Phe-CONH-CH2 CH(OH)-C6 H4 (3-OPh), Z-Leu-Phe-CONH--CH2 CH(OH)C6 H4 (3-OPh)]",600
7,"Z-Leu-Abu-CONH--CH2 CH(OH)C6 H2 (2,4,6-(OCH3)3)",380
8,Z-Leu-Phe-CONH--CH2 CH(OH)C6 H4 (3-CF3) [Z-Leu-Phe-CONH-CH2 CH(OH)-C6 H4 (3-CF3)],460

# Same assay, conditions: Table 3, M1 CO-Leu--AA--CONH-R; read-out: KI Cal I
row,Compound,Ki [nM]
1,"CCNC(=O)C(=O)C(CC)NC(=O)C(CC(C)C)NC(=O)c1nccc2ccccc12 (stereo not drawn) [1-isoquinolinyl-CO-Leu-Abu-CONH-Et, 1-Isoquinolinyl-CO-Leu-Abu-CONHEt]",350
2,"CCNC(=O)C(=O)C(CC)NC(=O)C(CC(C)C)NC(=O)c1ccco1 (stereo not drawn) [2-furyl-CO-Leu-Abu-CONH-Et, 2-Furyl-CO-Leu-Abu-CONHEt]",850
3,"CCNC(=O)C(=O)C(CC)NC(=O)C(CC(C)C)NC(=O)c1cnccn1 (stereo not drawn) [2-pyrazinyl-CO-Leu-Abu-CONH-Et, 2-Pyrazinyl-CO-Leu-Abu-CONHEt]",300
4,"CCNC(=O)C(=O)C(CC)NC(=O)C(CC(C)C)NC(=O)C1CCCO1 (stereo not drawn) [2-tetrahydrofuryl-CO-Leu-Abu-CONH-Et, 2-Tetrahydrofuryl-CO-Leu-Abu-CONHEt]",18500
5,"CCNC(=O)C(=O)C(CC)NC(=O)C(CC(C)C)NC(=O)c1cccnc1 (stereo not drawn) [3-pyridyl-CO-Leu-Abu-CONH-Et, 3-Pyridyl-CO-Leu-Abu-CONHEt]",1300
6,"CCNC(=O)C(=O)C(CC)NC(=O)C(CC(C)C)NC(=O)N1CCOCC1 (stereo not drawn) [4-morpholinyl-CO-Leu-Abu-CONH-Et, 4-Morpholinyl-CO-Leu-Abu-CONHEt]",7900
7,"CCNC(=O)C(=O)[C@H](CC)NC(=O)[C@H](CC(C)C)NC(=O)CCC(=O)OC [CH3 OCO(CH2)2-CO-Leu-Abu-CONH-Et, CH3 OCO(CH2)2 CO-Leu-Abu-CONHEt]",3800
8,"CCC(NC(=O)C(CC(C)C)NC(=O)C(c1ccccc1)c1ccccc1)C(=O)C(=O)NCC(O)c1ccccc1 (stereo not drawn) [Ph2 CH-CO-Leu-Abu-CONH-CH2 CH(OH)Ph, Ph2 CHCO-Leu-Abu-CONH--CH2 CH(OH)Ph]",750
9,Ph2 CHCO-Leu-Abu-CONHEt [Ph2 CH-CO-Leu-Abu-CONH-Et],5000

# Reference: US5514694A, “Peptidyl ketoamides” (Georgia Tech Research Corp, priority 1993, dated 1996)
